Data as given in US20050090659A1, “Phospholepid derivatives of nucleosides as antitumaorl medicaments” (priority 2001, published 2005).
Where two headings read alike, the source gives them in different places. Marks after values point to notes of the source that are not given here.

Experiments:
[1] = test system: MethA fibrosarcoma; details: for percent inhibition relative to the control values of group 1, Day 21 / percent inhibition relative to the control values of group 1, Day 28: + means increase; for Effect on tumor growth (antitumoral / antiproliferative), in words: MethA fibrosarcoma model, 3-100 mg/kg once weekly i.p.; for Tumor volume Day 21 / Tumor volume Day 28: median of 10 animals, once weekly i.p.
Excerpt: The substances, 5-fluoro-2′-deoxyuridine-5′-phosphoric acid-(3-dodecyl-thio-2-decyloxy)propylester (substance A) and 3′-azido-3′-deoxythymidine-5′-phosphoric acid-(3-dodecylthio-2-decyloxy)propylester (substance B), have been tested in the murine MethA fibrosarcoma model, amongst other tests, under in-vivo conditions for their antitumoral or antiproliferative potency and efficacy.
MethA fibrosarcoma cells were propagated intraperitoneal (i.p.) in the form of ascites tumor in female CB6F1 mice (Charles River Laboratories, Sulzfeld, Germany). For the entire duration of the tests, the animals were kept in macrolon cages under laminar flow conditions at 23±1° C. room temperature, 55±15% relative humidity and a light-dark cycle of 12 h each. […] Prior to enrolment in the corresponding experiment, the animals were accustomed to the conditions for at least 14 days. The animals were routinely checked for infection by murine viruses.
To test the active substance, female CB6F1 mice 6-8 weeks of age were inoculated with 1×10^5 MethA fibrosarcoma cells per mouse by the subcutaneous (s.c.) route. The tumor growth in control group mice and in animals of the verum-treated groups was determined regularly in weekly intervals by measuring the two perpendicular tumor diameters as described in Hermann D. B. J., Pahlke W., Opitz H.-G. and Bicker U., Cancer Treatment Reviews, 17, 247-252, 1990. The test substances were tested in a dose-dependent fashion with once weekly i.p. administration in phosphate-buffered saline (PBS). Animals in the control group were treated with placebo (PBS).
Tumor volumes on days 21 and 28 after tumor cell inoculation are expressed as medians of 10 animals per experimental group.

[2] = test system: K562 cells; test: Proliferation experiments with combinations, WST-1 colorimetry; format: cell-based; details: for reduction of the IC50 value of the combination partner in combination with substance A: substance A at a concentration just short of an antiproliferative effect
Protocol: The effect of the combination containing substance A and cisplatin, doxorubicin, vincristine, and camptothecin, was tested in proliferation experiments. For this purpose, substance A was dissolved in medium at a stock concentration of 1 mg/ml. The other substances were dissolved in water or DMSO (dimethylsulfoxide) at the same stock concentration of 1 mg/ml. The series' of experiments were performed in 96-well plates. […] Cells in the absence of substance and pure medium served as the controls. The in-vitro activity of the test substances was determined by colorimetry on the basis of cleavage of the tetrazolium salt, WST-1 (Roche Molecular Biochemicals, Mannheim, Del.). For this purpose, the cultures were incubated with 10 μl WST for 4 hours. Then the plates were shaken gently. The optical density was measured with an ELISA reader (Spectra MAX 340PC, Molecular Devices, Ismaning, Del.) at wavelengths from 440 to 650 nm. The IC50 value was determined for each substance. In the case of the combination, one of the substances was used at a concentration just short of showing an antiproliferative effect and the IC50 value of the combination was then determined after the addition of the second substance.

[3] = for Blood levels: HB / Blood levels: HCT / Blood levels: MCH / Blood levels: MCHC / Blood levels: MCV / Blood levels: PLT / Blood levels: RBC / Blood levels: WBC / Organ weight: Brain / Organ weight: Colon / Organ weight: Heart / Organ weight: Intestines / Organ weight: Kidney / Organ weight: Liver / Organ weight: Lungs / Organ weight: Ovaries / Organ weight: Spleen / Organ weight: Stomach / Bone marrow cell count: mean ± SEM; for Bone marrow cell count: 10 animals; for Body weight: median
Protocol: Substance A was tested in female NMRI mice for its tolerability. The animals were kept under the same conditions as described in Example 1.
Female NMRI mice, 6-8 weeks of age (Charles River Laboratories, Sulzfeld, Germany), were treated with 1 or 1.5 g/kg of substance A administered by an esophageal probe. Subsequently, the following toxicity parameters were determined: • Blood counts, including white blood cell concentration (WBC), red blood cells concentration (RBC), hemoglobin (HB), hematocrit (HCT), platelet concentration (PLT), mean corpuscular volume (MCV), mean corpuscular hemoglobin (MCH) and mean corpuscular hemoglobin concentration (MCHC), • Bone marrow cell count, i.e. number of bone marrow cells per femur (M/femur), • Body weight • Organ weights, including weight of colon, heart, brain, intestines, lungs, liver, stomach, spleen, kidneys, ovaries.

[4] = 3 mg/kg/application, day 21 after tumor cell inoculation
[5] = very high dosage (1 or 1.5 g/kg)
[6] = partner at a concentration just short of an antiproliferative effect

## CCCCCCCCCCCCSCC(COP(=O)(O)OC[C@H]1O[C@@H](n2cc(C)c(=O)[nH]c2=O)C[C@@H]1N=[N+]=[N-])OCCCCCCCCCC (some centres unmarked) [Substance B, 3′-azido-3′-deoxythymidine-5′-phosphoric acid-(3-dodecylthio-2-decyloxy)propylester, reference compound]
[1]; 3 mg/kg/application, day 21
  percent inhibition relative to the control values of group 1, Day 21: 0.8%
[1]; 3 mg/kg/application
  percent inhibition relative to the control values of group 1, Day 28: +4.1%
  Tumor volume Day 28: 10.228 mm^3
[1]; 30 mg/kg/application, day 21
  percent inhibition relative to the control values of group 1, Day 21: +1.7%
  Tumor volume Day 21: 4.102 mm^3
[1]; 30 mg/kg/application
  percent inhibition relative to the control values of group 1, Day 28: +1.4%
  Tumor volume Day 28: 9.963 mm^3
[1]; 100 mg/kg/application, day 21
  percent inhibition relative to the control values of group 1, Day 21: 0.3%
  Tumor volume Day 21: 4.021 mm^3
[1]; 100 mg/kg/application
  percent inhibition relative to the control values of group 1, Day 28: +2.8%
  Tumor volume Day 28: 10.098 mm^3
[1]
  Effect on tumor growth (antitumoral / antiproliferative), in words: no antitumoral or antiproliferative properties
[1]; [4]
  Tumor volume Day 21: 3.998 mm^3

## CC[C@]1(O)C[C@H]2CN(CCc3c([nH]c4ccccc34)[C@@](C(=O)OC)(c3cc4c(cc3OC)N(C=O)[C@H]3[C@@](O)(C(=O)OC)[C@H](OC(C)=O)[C@]5(CC)C=CCN6CC[C@]43[C@@H]65)C2)C1 [vincristine, reference compound]
[2]
  reduction of the IC50 value of the combination partner in combination with substance A: approx. 65%

## CC[C@@]1(O)C(=O)OCc2c1cc1n(c2=O)Cc2cc3ccccc3nc2-1 [camptothecin, reference compound]
[2]
  reduction of the IC50 value of the combination partner in combination with substance A: approx. 90%

## COc1cccc2c1C(=O)c1c(O)c3c(c(O)c1C2=O)C[C@@](O)(C(=O)CO)C[C@@H]3O[C@H]1C[C@H](N)[C@H](O)[C@H](C)O1 [doxorubicin, reference compound]
[2]
  reduction of the IC50 value of the combination partner in combination with substance A: approx. 50%

## CCCCCCCCCCCCSCC(COP(=O)(O)OC[C@H]1O[C@@H](n2cc(F)c(=O)[nH]c2=O)C[C@@H]1O)OCCCCCCCCCC (some centres unmarked) [Substance A, 5-fluoro-2′-deoxyuridine-5′-phosphoric acid-(3-dodecyl-thio-2-decyloxy)propylester]
[1]; 3 mg/kg/application, day 21
  percent inhibition relative to the control values of group 1, Day 21: 59.1%
[1]; 3 mg/kg/application
  percent inhibition relative to the control values of group 1, Day 28: 57.6%
  Tumor volume Day 28: 4.163 mm^3
[1]; 30 mg/kg/application, day 21
  percent inhibition relative to the control values of group 1, Day 21: 89.7%
  Tumor volume Day 21: 416 mm^3
[1]; 30 mg/kg/application
  percent inhibition relative to the control values of group 1, Day 28: 87.2%
  Tumor volume Day 28: 1.254 mm^3
[1]; 100 mg/kg/application, day 21
  percent inhibition relative to the control values of group 1, Day 21: 91.1%
  Tumor volume Day 21: 357 mm^3
[1]; 100 mg/kg/application
  percent inhibition relative to the control values of group 1, Day 28: 92.2%
  Tumor volume Day 28: 762 mm^3
[1]
  Effect on tumor growth (antitumoral / antiproliferative), in words: inhibits tumor growth highly significantly and in a dose- and time-dependent fashion
[1]; [4]
  Tumor volume Day 21: 1.649 mm^3
[3]; 1 g/kg
  Blood levels: HB: 17850 ± 390 µg/mL
  Blood levels: HCT: 47.93 ± 1.16%
  Blood levels: MCH: 19.28 ± 0.22 pg
  Blood levels: MCHC: 37.29 ± 0.44 g/dL
  Blood levels: MCV: 51.50 ± 0.58 fL
  Blood levels: PLT: 1153 ± 41 k/μl
  Blood levels: RBC: 9.31 ± 0.23 M/μl
  Blood levels: WBC: 14.34 ± 2.18 k/μl
  Organ weight: Brain: 399 ± 8 g
  Organ weight: Colon: 373 ± 15 g
  Organ weight: Heart: 133 ± 4 g
  Organ weight: Intestines: 1.622 ± 61 g
  Organ weight: Kidney: 361 ± 17 g
  Organ weight: Liver: 1.602 ± 42 g
  Organ weight: Lungs: 226 ± 9 g
  Organ weight: Ovaries: 183 ± 17 g
  Organ weight: Spleen: 125 ± 9 g
  Organ weight: Stomach: 232 ± 7 g
  Bone marrow cell count: 28.48 ± 0.86 M/Femur
  Body weight: 28.7^c g
[3]; 1 or 1.5 g/kg of body weight
  Tolerability parameters compared to the placebo-treated control group, in words: no significant reduction in the tolerability parameters
[3]; 1.5 g/kg
  Blood levels: HB: 15790 ± 920 µg/mL
  Blood levels: HCT: 43.42 ± 2.77%
  Blood levels: MCH: 19.09 ± 0.37 pg
  Blood levels: MCHC: 36.53 ± 0.38 g/dL
  Blood levels: MCV: 52.09 ± 0.81 fL
  Blood levels: PLT: 1431 ± 172 k/μl
  Blood levels: RBC: 8.34 ± 0.56 M/μl
  Blood levels: WBC: 16.97 ± 6.05 k/μl
  Organ weight: Brain: 387 ± 18 g
  Organ weight: Colon: 392 ± 29 g
  Organ weight: Heart: 126 ± 9 g
  Organ weight: Intestines: 1.807 ± 112 g
  Organ weight: Kidney: 351 ± 26 g
  Organ weight: Liver: 1.739 ± 81 g
  Organ weight: Lungs: 206 ± 9 g
  Organ weight: Ovaries: 203 ± 33 g
  Organ weight: Spleen: 204 ± 26 g
  Organ weight: Stomach: 232 ± 16 g
  Bone marrow cell count: 31.44 ± 1.51 M/Femur
  Body weight: 27.9^c g
[3]; [5]
  Bone marrow suppression, hematotoxicity or unspecific-toxic organ intolerance, in words: no evidence of bone marrow suppression, hematotoxicity or unspecific-toxic organ intolerance
  Unspecific-toxic properties under in-vivo conditions, in words: no unspecific-toxic properties
[2]; [6]
  reduction of the IC50 value of substance A in combination with camptothecin: approx. 40%
  reduction of the IC50 value of substance A in combination with cisplatin: 25%
  reduction of the IC50 value of substance A in combination with doxorubicin: approx. 30%
  reduction of the IC50 value of substance A in combination with vincristine: approx. 60%

## N.N.[Cl][Pt][Cl] [cisplatin, reference compound]
[2]
  reduction of the IC50 value of the combination partner in combination with substance A: 50%
